Data reported in PMC5218480 (PLoS ONE, 2017).

Tested on: MV-4-11 cells
Experiment: Gene expression microarray analysis (Affymetrix PrimeView) and GSEA
Format: cell-based, human
Parameters: RFU PODN (11730768_x_at) / Fold change /veh PODN (11730768_x_at) / RFU LINC00158 (11744669_a_at) / Fold change /veh LINC00158 (11744669_a_at) / RFU DUSP10 (11751237_a_at) / Fold change /veh DUSP10 (11751237_a_at) / RFU ID3 (11757404_x_at) / Fold change /veh ID3 (11757404_x_at) / RFU PLEKHG5 (11737974_s_at) / Fold change /veh PLEKHG5 (11737974_s_at) / RFU LRRC4B (11730491_at) / Fold change /veh LRRC4B (11730491_at) / RFU GIMAP4 (11747438_a_at) / Fold change /veh GIMAP4 (11747438_a_at) / RFU KRT8 (11758183_x_at) / Fold change /veh KRT8 (11758183_x_at) / RFU CNN1 (11734310_a_at) / Fold change /veh CNN1 (11734310_a_at) / RFU VPS37D (11726825_at) / Fold change /veh VPS37D (11726825_at) / RFU C10orf10 (11716522_x_at) / Fold change /veh C10orf10 (11716522_x_at) / RFU KIR2DL2 /// KIR2DL4 /// KIR2DL5A /// KIR2DL5B /// KIR2DS1 /// KIR2DS2 /// KIR2DS3 /// KIR2DS4 /// KIR3DL3 /// KIR3DL3 /// KIR3DS1 (11738374_at) / Fold change /veh KIR2DL2 /// KIR2DL4 /// KIR2DL5A /// KIR2DL5B /// KIR2DS1 /// KIR2DS2 /// KIR2DS3 /// KIR2DS4 /// KIR3DL3 /// KIR3DL3 /// KIR3DS1 (11738374_at) / RFU C1QL1 (11718748_at) / Fold change /veh C1QL1 (11718748_at) / RFU TMPRSS4 (11747572_a_at) / Fold change /veh TMPRSS4 (11747572_a_at) / RFU HAMP (11756126_x_at) / Fold change /veh HAMP (11756126_x_at) / RFU RNFT2 (11725882_a_at) / Fold change /veh RNFT2 (11725882_a_at) / RFU NR4A2 (11747474_a_at) / Fold change /veh NR4A2 (11747474_a_at) / RFU ABCC12 (11746883_a_at) / Fold change /veh ABCC12 (11746883_a_at) / RFU TMEM136 (11760407_x_at) / Fold change /veh TMEM136 (11760407_x_at) / RFU CLDN22 /// WWC2 (11732394_at) / Fold change /veh CLDN22 /// WWC2 (11732394_at) / RFU HLA-DPB1 (11760878_x_at) / Fold change /veh HLA-DPB1 (11760878_x_at) / RFU SPINT1 (11716480_a_at) / Fold change /veh SPINT1 (11716480_a_at) / RFU GAP43 (11754022_s_at) / Fold change /veh GAP43 (11754022_s_at) / RFU A4GNT (11735810_at) / Fold change /veh A4GNT (11735810_at) / RFU PRB3 (11715151_x_at) / Fold change /veh PRB3 (11715151_x_at) / RFU TUBB4B (11761932_at) / Fold change /veh TUBB4B (11761932_at) / RFU CAPN14 (11732068_a_at) / Fold change /veh CAPN14 (11732068_a_at) / RFU TMCC2 (11721928_a_at) / Fold change /veh TMCC2 (11721928_a_at) / RFU IRGQ (11745062_a_at) / Fold change /veh IRGQ (11745062_a_at) / RFU FAM174B (11720279_a_at) / Fold change /veh FAM174B (11720279_a_at) / RFU TMPRSS4 (11748680_a_at) / Fold change /veh TMPRSS4 (11748680_a_at) / RFU FAM212B (11763350_a_at) / Fold change /veh FAM212B (11763350_a_at) / RFU PLEKHG5 (11743358_a_at) / Fold change /veh PLEKHG5 (11743358_a_at) / RFU ZSCAN30 (11745921_a_at) / Fold change /veh ZSCAN30 (11745921_a_at) / RFU CMKLR1 (11741424_a_at) / Fold change /veh CMKLR1 (11741424_a_at) / RFU LOC101060620 /// MAPK8IP1 (11723275_at) / Fold change /veh LOC101060620 /// MAPK8IP1 (11723275_at) / RFU SPTSSB (11747773_x_at) / Fold change /veh SPTSSB (11747773_x_at) / RFU PRSS12 (11739890_at) / Fold change /veh PRSS12 (11739890_at) / RFU BIN1 (11741810_x_at) / Fold change /veh BIN1 (11741810_x_at) / RFU WNT11 (11732464_a_at) / Fold change /veh WNT11 (11732464_a_at) / RFU C10orf10 (11716521_a_at) / Fold change /veh C10orf10 (11716521_a_at) / RFU C5orf56 (11738089_at) / Fold change /veh C5orf56 (11738089_at) / RFU CYB561 (11721691_x_at) / Fold change /veh CYB561 (11721691_x_at) / RFU ANKRD19P (11752326_a_at) / Fold change /veh ANKRD19P (11752326_a_at) / RFU OR2T12 /// OR2T33 /// OR2T8 (11738714_s_at) / Fold change /veh OR2T12 /// OR2T33 /// OR2T8 (11738714_s_at) / RFU VCAN (11748164_a_at) / Fold change /veh VCAN (11748164_a_at) / RFU JSRP1 (11732532_at) / Fold change /veh JSRP1 (11732532_at) / RFU KRTAP10-11 (11738290_x_at) / Fold change /veh KRTAP10-11 (11738290_x_at) / RFU MYO3A (11730013_a_at) / Fold change /veh MYO3A (11730013_a_at) / RFU EBF3 (11725865_a_at) / Fold change /veh EBF3 (11725865_a_at) / RFU CAMK2N1 (11719241_x_at) / Fold change /veh CAMK2N1 (11719241_x_at) / RFU C5orf56 (11738088_a_at) / Fold change /veh C5orf56 (11738088_a_at) / RFU OLFML3 (11715873_a_at) / Fold change /veh OLFML3 (11715873_a_at) / RFU LOC100653217 /// NTM (11731650_a_at) / Fold change /veh LOC100653217 /// NTM (11731650_a_at) / RFU MAPK11 (11762145_a_at) / Fold change /veh MAPK11 (11762145_a_at) / RFU FIZ1 (11724087_x_at) / Fold change /veh FIZ1 (11724087_x_at) / RFU OASL (11726364_x_at) / Fold change /veh OASL (11726364_x_at) / RFU SOX15 (11748057_x_at) / Fold change /veh SOX15 (11748057_x_at) / RFU CD79A (11719716_a_at) / Fold change /veh CD79A (11719716_a_at) / RFU HIST1H1D (11736915_at) / Fold change /veh HIST1H1D (11736915_at) / RFU CASKIN2 (11723855_a_at) / Fold change /veh CASKIN2 (11723855_a_at) / RFU LOC730098 (11760151_x_at) / Fold change /veh LOC730098 (11760151_x_at) / RFU OR4N2 (11742367_at) / Fold change /veh OR4N2 (11742367_at) / RFU PRRT2 (11749266_a_at) / Fold change /veh PRRT2 (11749266_a_at) / RFU SNX32 (11753110_a_at) / Fold change /veh SNX32 (11753110_a_at) / RFU CDHR5 (11726645_a_at) / Fold change /veh CDHR5 (11726645_a_at) / RFU RCAN1 (11760418_a_at) / Fold change /veh RCAN1 (11760418_a_at) / RFU FAM167A (11723789_a_at) / Fold change /veh FAM167A (11723789_a_at) / RFU FAM26E (11764081_at) / Fold change /veh FAM26E (11764081_at) / RFU ISYNA1 (11749810_s_at) / Fold change /veh ISYNA1 (11749810_s_at) / RFU ACY1 (11761880_at) / Fold change /veh ACY1 (11761880_at) / RFU 11764098_at / Fold change /veh 11764098_at / RFU SAMD14 (11745864_x_at) / Fold change /veh SAMD14 (11745864_x_at) / RFU NPB (11741838_a_at) / Fold change /veh NPB (11741838_a_at) / RFU TMPRSS6 (11731388_a_at) / Fold change /veh TMPRSS6 (11731388_a_at) / RFU KRTAP10-2 (11738614_at) / Fold change /veh KRTAP10-2 (11738614_at) / RFU ARHGAP8 /// PRR5-ARHGAP8 (11727945_x_at) / Fold change /veh ARHGAP8 /// PRR5-ARHGAP8 (11727945_x_at) / RFU KRTAP5-7 /// NADSYN1 (11734609_at) / Fold change /veh KRTAP5-7 /// NADSYN1 (11734609_at) / RFU RASL12 (11751679_a_at) / Fold change /veh RASL12 (11751679_a_at) / RFU CDKN2B (11736163_a_at) / Fold change /veh CDKN2B (11736163_a_at) / RFU PRF1 (11729649_at) / Fold change /veh PRF1 (11729649_at) / RFU, ZNF638 /// ZNF638-IT1 / Fold change vs veh, ZNF638 /// ZNF638-IT1 / RFU, PANK3 / Fold change vs veh, PANK3 / RFU, SH3YL1 / Fold change vs veh, SH3YL1 / RFU, ZEB2 / Fold change vs veh, ZEB2 / RFU, NRIP1 / Fold change vs veh, NRIP1 / RFU, PTTG1IP / Fold change vs veh, PTTG1IP / RFU, CAPN2 / Fold change vs veh, CAPN2 / RFU, MED14 / Fold change vs veh, MED14 / RFU, SNORA58 / Fold change vs veh, SNORA58 / RFU, C1orf63 / Fold change vs veh, C1orf63 / RFU, LRRFIP1 / Fold change vs veh, LRRFIP1 / RFU, NDUFAF7 / Fold change vs veh, NDUFAF7 / RFU, SLC12A2 / Fold change vs veh, SLC12A2 / RFU, IBTK / Fold change vs veh, IBTK / RFU, ESF1 / Fold change vs veh, ESF1 / Fold change vs veh, TMEM50B / RFU, TAOK1 / Fold change vs veh, TAOK1 / RFU, ACBD3 / Fold change vs veh, ACBD3 / RFU, TMA16 / Fold change vs veh, TMA16 / RFU, RWDD3 / Fold change vs veh, RWDD3 / RFU, BCAT1 / Fold change vs veh, BCAT1 / RFU, EDEM3 / Fold change vs veh, EDEM3 / RFU, TMEM33 / Fold change vs veh, TMEM33 / RFU, WDR75 / Fold change vs veh, WDR75 / RFU, AHCTF1 / Fold change vs veh, AHCTF1 / RFU, TFRC / Fold change vs veh, TFRC / RFU, ZDHHC17 / Fold change vs veh, ZDHHC17 / RFU, NOM1 / Fold change vs veh, NOM1 / RFU, ARL8B / Fold change vs veh, ARL8B / RFU, ZBTB11 / Fold change vs veh, ZBTB11 / RFU, TAMM41 / Fold change vs veh, TAMM41 / RFU, KIAA1704 /// LOC100996395 / Fold change vs veh, KIAA1704 /// LOC100996395 / RFU, ING1 / Fold change vs veh, ING1 / RFU, TRMT61B / Fold change vs veh, TRMT61B / RFU, FUBP3 / Fold change vs veh, FUBP3 / RFU, TP53 / Fold change vs veh, TP53 / RFU, TNKS2 / Fold change vs veh, TNKS2 / RFU, ZFP14 / Fold change vs veh, ZFP14 / RFU, ACTR2 / Fold change vs veh, ACTR2 / RFU, PPP3R1 / Fold change vs veh, PPP3R1 / RFU, PIK3R1 / Fold change vs veh, PIK3R1 / RFU, HNRNPA1 / Fold change vs veh, HNRNPA1 / RFU, RNF170 / Fold change vs veh, RNF170 / RFU, ZNF28 / Fold change vs veh, ZNF28 / RFU, RNGTT / Fold change vs veh, RNGTT / RFU, OGT / Fold change vs veh, OGT / RFU, BRD1 / Fold change vs veh, BRD1 / RFU, MARS / Fold change vs veh, MARS / RFU, ZNF655 / Fold change vs veh, ZNF655 / RFU, FAHD1 / Fold change vs veh, FAHD1 / RFU, BDP1 / Fold change vs veh, BDP1 / RFU, LRRCC1 / Fold change vs veh, LRRCC1 / RFU, ARID1A / Fold change vs veh, ARID1A / RFU, ZNF146 / Fold change vs veh, ZNF146 / RFU, ZNF330 / Fold change vs veh, ZNF330 / RFU, GPN3 / Fold change vs veh, GPN3 / RFU, C9orf123 / Fold change vs veh, C9orf123 / RFU, N4BP2L2 / Fold change vs veh, N4BP2L2 / RFU, ARFIP1 / Fold change vs veh, ARFIP1 / RFU, FAM179B / Fold change vs veh, FAM179B / RFU, BCL10 / Fold change vs veh, BCL10 / RFU, UHRF1BP1L / Fold change vs veh, UHRF1BP1L / RFU, BET1 / Fold change vs veh, BET1 / RFU, CNOT2 / Fold change vs veh, CNOT2 / RFU, ZNF268 / Fold change vs veh, ZNF268 / Fold change vs veh, ZNF507 / RFU, DGCR2 / Fold change vs veh, DGCR2 / RFU, WDSUB1 / Fold change vs veh, WDSUB1 / Fold change vs veh, HSP90B1 /// MIR3652 / RFU, ADSS / Fold change vs veh, ADSS / RFU, GK / Fold change vs veh, GK / RFU, ZNF148 / Fold change vs veh, ZNF148 / RFU, TAF9 / Fold change vs veh, TAF9 / RFU, SLC1A5 / Fold change vs veh, SLC1A5 / RFU, SLMO2 / Fold change vs veh, SLMO2 / RFU, ABCC4 / Fold change vs veh, ABCC4 / RFU, LOC101060439 /// RAP1B / Fold change vs veh, LOC101060439 /// RAP1B / RFU, RFX7 / Fold change vs veh, RFX7 / RFU, GTPBP10 / Fold change vs veh, GTPBP10 / RFU, CNEP1R1 / Fold change vs veh, CNEP1R1 / RFU, BIVM-ERCC5 /// ERCC5 / Fold change vs veh, BIVM-ERCC5 /// ERCC5 / RFU, ILF3 / Fold change vs veh, ILF3 / RFU 11762660_at / Fold change /veh 11762660_at / RFU VCAN (11757783_s_at) / Fold change /veh VCAN (11757783_s_at) / RFU DDX43 (11728927_at) / Fold change /veh DDX43 (11728927_at) / RFU KRT8 (11758188_x_at) / Fold change /veh KRT8 (11758188_x_at) / RFU NKD1 (11759106_at) / Fold change /veh NKD1 (11759106_at) / RFU SRD5A1 (11742802_a_at) / Fold change /veh SRD5A1 (11742802_a_at) / RFU TPSAB1 /// TPSB2 (11721975_s_at) / Fold change /veh TPSAB1 /// TPSB2 (11721975_s_at) / RFU GSTM3 (11746129_a_at) / Fold change /veh GSTM3 (11746129_a_at) / RFU IL23R (11737362_x_at) / Fold change /veh IL23R (11737362_x_at) / RFU TMEM51 (11727254_a_at) / Fold change /veh TMEM51 (11727254_a_at) / RFU PIWIL2 (11732686_x_at) / Fold change /veh PIWIL2 (11732686_x_at) / RFU ORM1 (11744905_x_at) / Fold change /veh ORM1 (11744905_x_at) / RFU CCDC152 (11743942_at) / Fold change /veh CCDC152 (11743942_at) / RFU ECM1 (11717891_a_at) / Fold change /veh ECM1 (11717891_a_at) / RFU IL23R (11748794_a_at) / Fold change /veh IL23R (11748794_a_at) / RFU TNFAIP8L3 (11732012_x_at) / Fold change /veh TNFAIP8L3 (11732012_x_at) / RFU MBOAT4 (11741988_at) / Fold change /veh MBOAT4 (11741988_at) / RFU 11764193_at / Fold change /veh 11764193_at / RFU TMEM53 (11763286_at) / Fold change /veh TMEM53 (11763286_at) / RFU MAGEB2 (11727129_at) / Fold change /veh MAGEB2 (11727129_at) / RFU TMEM200A (11744735_a_at) / Fold change /veh TMEM200A (11744735_a_at) / RFU CCDC152 (11751479_a_at) / Fold change /veh CCDC152 (11751479_a_at) / RFU FAM211A (11726209_a_at) / Fold change /veh FAM211A (11726209_a_at) / RFU RGS16 (11746705_a_at) / Fold change /veh RGS16 (11746705_a_at) / RFU VCAN (11755009_s_at) / Fold change /veh VCAN (11755009_s_at) / RFU RHOB (11743442_s_at) / Fold change /veh RHOB (11743442_s_at) / RFU RGS16 (11720943_a_at) / Fold change /veh RGS16 (11720943_a_at) / RFU RGS16 (11720944_at) / Fold change /veh RGS16 (11720944_at) / RFU, VPS4B / Fold change vs veh, VPS4B / RFU, CREB1 / Fold change vs veh, CREB1 / RFU, DNAJC13 / Fold change vs veh, DNAJC13 / RFU, GNAQ / Fold change vs veh, GNAQ / RFU, CDK5R1 / Fold change vs veh, CDK5R1 / RFU, ZRANB3 / Fold change vs veh, ZRANB3 / RFU, CUL4A / Fold change vs veh, CUL4A / RFU, CCNY / Fold change vs veh, CCNY / RFU, UFL1 / Fold change vs veh, UFL1 / RFU, COG3 / Fold change vs veh, COG3 / RFU, DIAPH2 / Fold change vs veh, DIAPH2 / RFU, SKA2 / Fold change vs veh, SKA2 / RFU, AFF3 / Fold change vs veh, AFF3 / RFU, LMF1 / Fold change vs veh, LMF1 / RFU, IPO11 / Fold change vs veh, IPO11 / RFU, DFFB / Fold change vs veh, DFFB / RFU, FOXP1 / Fold change vs veh, FOXP1 / RFU, CARD8 / Fold change vs veh, CARD8 / RFU, STRN3 / Fold change vs veh, STRN3 / RFU, ADK / Fold change vs veh, ADK / RFU, RASSF2 / Fold change vs veh, RASSF2 / RFU, WIPF1 / Fold change vs veh, WIPF1 / RFU, LARP1B / Fold change vs veh, LARP1B / RFU, RASA1 / Fold change vs veh, RASA1 / RFU, RB1 / Fold change vs veh, RB1 / RFU, PPFIA1 / Fold change vs veh, PPFIA1 / RFU, MAT2A / Fold change vs veh, MAT2A / RFU, CCT5 / Fold change vs veh, CCT5 / RFU, WDR92 / Fold change vs veh, WDR92 / RFU, CUX1 / Fold change vs veh, CUX1 / RFU, TTC7A / Fold change vs veh, TTC7A / RFU, TMEM135 / Fold change vs veh, TMEM135 / RFU, DEPTOR / Fold change vs veh, DEPTOR / RFU, CPM / Fold change vs veh, CPM / RFU, DNAJB6 / Fold change vs veh, DNAJB6 / RFU, CACNA2D3 / Fold change vs veh, CACNA2D3 / RFU, DTX4 / Fold change vs veh, DTX4 / RFU, TFCP2 / Fold change vs veh, TFCP2 / RFU, GMCL1 /// GMCL1P1 / Fold change vs veh, GMCL1 /// GMCL1P1 / RFU, AEBP2 / Fold change vs veh, AEBP2 / RFU, SNHG1 /// SNORD22 /// SNORD25 /// SNORD26 /// SNORD27 /// SNORD28 /// SNORD29 /// SNORD31 / Fold change vs veh, SNHG1 /// SNORD22 /// SNORD25 /// SNORD26 /// SNORD27 /// SNORD28 /// SNORD29 /// SNORD31 / Fold change (Aza/veh), C12orf56 (ProbeSet 11735607_a_at) / Fold change (ACY-1035/veh), C12orf56 (ProbeSet 11735607_a_at) / Fold change (Aza/veh), FGFR1OP (ProbeSet 11751329_s_at) / Fold change (ACY-1035/veh), FGFR1OP (ProbeSet 11751329_s_at) / Fold change (Aza/veh), VPS36 (ProbeSet 11739960_a_at) / Fold change (ACY-1035/veh), VPS36 (ProbeSet 11739960_a_at) / RFU SYPL1 (11715823_x_at) / Fold change /veh SYPL1 (11715823_x_at) / RFU IGFBP7 (11715501_s_at) / Fold change /veh IGFBP7 (11715501_s_at) / RFU REEP3 (11722064_at) / Fold change /veh REEP3 (11722064_at) / RFU IGLL1 (11728026_x_at) / Fold change /veh IGLL1 (11728026_x_at): dose or concentration left out as unconfirmed
Conditions: MV-4-11 cells, 48 hours

SMILES: Nc1ncn([C@@H]2O[C@H](CO)[C@@H](O)[C@H]2O)c(=O)n1 [azacitidine]
- Fold change /veh KRTAP10-11 (11738290_x_at): 1.14
